Experimental data as given in the kinase profiling compilation of Christmann-Franck et al. (2016).

Tests used:
Assay in all cases: KINOMEscan competition binding
Details in all cases: compound 10.0 µM
[1] = tested on: ABL1 (human), P00519 [M351T]
ACVR2B (human) = ACVR2B (human) (UniProt Q13705)
ALK (human) = ALK (human) (UniProt Q9UM73)
CAMKK2 (human) = CAMKK2 (human) (UniProt Q96RR4)
CDK11B (human) = CDK11B (human) (UniProt P21127)
CDKL2 (human) = CDKL2 (human) (UniProt Q92772)
CHEK1 (human) = CHEK1 (human) (UniProt O14757)
CaMK1 (human) = CaMK1 (human) (UniProt Q14012)
DAPK1 (human) = DAPK1 (human) (UniProt P53355)
DAPK3 (human) = DAPK3 (human) (UniProt O43293)
DDR2 (human) = DDR2 (human) (UniProt Q16832)
DDR2 (human), sequence (Q16832 whole entry, looked up): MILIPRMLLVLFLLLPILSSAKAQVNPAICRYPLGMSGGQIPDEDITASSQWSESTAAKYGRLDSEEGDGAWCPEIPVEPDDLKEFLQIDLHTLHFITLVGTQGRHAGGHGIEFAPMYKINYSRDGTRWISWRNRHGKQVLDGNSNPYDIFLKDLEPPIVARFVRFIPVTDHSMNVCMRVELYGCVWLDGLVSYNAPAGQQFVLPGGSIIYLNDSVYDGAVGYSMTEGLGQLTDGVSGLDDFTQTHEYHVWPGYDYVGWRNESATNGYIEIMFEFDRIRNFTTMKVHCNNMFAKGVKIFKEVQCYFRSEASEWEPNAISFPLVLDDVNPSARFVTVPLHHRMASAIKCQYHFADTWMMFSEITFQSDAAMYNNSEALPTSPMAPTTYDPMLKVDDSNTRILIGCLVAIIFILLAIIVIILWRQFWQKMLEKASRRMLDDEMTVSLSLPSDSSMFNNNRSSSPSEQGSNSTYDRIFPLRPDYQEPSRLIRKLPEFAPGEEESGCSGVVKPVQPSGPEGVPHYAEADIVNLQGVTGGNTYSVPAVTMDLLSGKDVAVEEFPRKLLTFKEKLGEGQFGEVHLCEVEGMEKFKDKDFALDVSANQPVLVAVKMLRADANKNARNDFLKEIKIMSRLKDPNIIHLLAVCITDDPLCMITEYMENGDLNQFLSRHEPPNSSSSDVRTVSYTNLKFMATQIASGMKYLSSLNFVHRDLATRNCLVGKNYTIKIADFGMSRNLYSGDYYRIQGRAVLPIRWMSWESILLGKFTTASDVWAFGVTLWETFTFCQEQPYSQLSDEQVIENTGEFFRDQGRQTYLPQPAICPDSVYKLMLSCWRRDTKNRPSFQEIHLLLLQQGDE

EPHA2 (human) = EPHA2 (human) (UniProt P29317)
EPHB3 (human) = EPHB3 (human) (UniProt P54753)
FER (human) = FER (human) (UniProt P16591)
FGR (human) = FGR (human) (UniProt P09769)
GAK (human) = GAK (human) (UniProt O14976)
GSK3A (human) = GSK3A (human) (UniProt P49840)
IGF1R (human) = IGF1R (human) (UniProt P08069)
[2] = tested on: KIT (human), P10721 [D816V]
KIT (human), P10721 [D816V], sequence (P10721 whole entry D816V, looked up): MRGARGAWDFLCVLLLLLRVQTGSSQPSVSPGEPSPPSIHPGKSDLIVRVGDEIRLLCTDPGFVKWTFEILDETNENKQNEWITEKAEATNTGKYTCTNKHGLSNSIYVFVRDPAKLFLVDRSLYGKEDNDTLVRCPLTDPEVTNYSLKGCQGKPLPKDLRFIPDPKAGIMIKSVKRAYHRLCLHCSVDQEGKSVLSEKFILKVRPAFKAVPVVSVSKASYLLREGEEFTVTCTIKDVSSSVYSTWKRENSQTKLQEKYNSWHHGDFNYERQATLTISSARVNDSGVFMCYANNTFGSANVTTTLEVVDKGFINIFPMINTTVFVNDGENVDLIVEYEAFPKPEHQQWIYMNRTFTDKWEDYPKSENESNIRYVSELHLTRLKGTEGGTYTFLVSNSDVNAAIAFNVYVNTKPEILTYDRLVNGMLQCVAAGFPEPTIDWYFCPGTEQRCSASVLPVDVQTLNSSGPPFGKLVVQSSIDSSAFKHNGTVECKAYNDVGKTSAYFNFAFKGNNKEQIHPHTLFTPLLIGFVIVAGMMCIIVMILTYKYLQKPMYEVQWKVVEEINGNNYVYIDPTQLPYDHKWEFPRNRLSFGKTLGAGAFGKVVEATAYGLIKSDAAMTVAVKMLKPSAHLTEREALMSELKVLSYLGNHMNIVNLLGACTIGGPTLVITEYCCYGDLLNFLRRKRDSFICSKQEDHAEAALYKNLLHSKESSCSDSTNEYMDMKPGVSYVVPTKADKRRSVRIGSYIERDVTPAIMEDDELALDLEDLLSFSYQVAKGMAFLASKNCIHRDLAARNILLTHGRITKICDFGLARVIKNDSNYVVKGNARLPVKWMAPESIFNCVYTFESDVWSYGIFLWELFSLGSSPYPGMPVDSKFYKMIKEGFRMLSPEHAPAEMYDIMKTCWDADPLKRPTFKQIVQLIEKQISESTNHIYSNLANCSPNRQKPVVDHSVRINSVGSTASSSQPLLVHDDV

LIMK2 (human) = LIMK2 (human) (UniProt P53671)
MAP2K1 (human) = MAP2K1 (human) (UniProt Q02750)
MAP3K5 (human) = MAP3K5 (human) (UniProt Q99683)
MAPK1 (human) = MAPK1 (human) (UniProt P28482)
MAPK1 (human), sequence (P28482 whole entry, looked up): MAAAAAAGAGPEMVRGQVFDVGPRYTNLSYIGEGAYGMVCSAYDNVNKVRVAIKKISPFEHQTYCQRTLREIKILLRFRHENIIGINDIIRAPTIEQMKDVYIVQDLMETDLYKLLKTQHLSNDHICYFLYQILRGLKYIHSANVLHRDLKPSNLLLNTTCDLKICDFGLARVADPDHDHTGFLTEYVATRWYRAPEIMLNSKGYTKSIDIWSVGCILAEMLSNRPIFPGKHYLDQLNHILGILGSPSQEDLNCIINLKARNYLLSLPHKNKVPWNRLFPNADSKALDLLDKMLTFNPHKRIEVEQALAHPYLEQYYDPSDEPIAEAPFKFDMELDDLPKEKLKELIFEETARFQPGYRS

MAPK4 (human) = MAPK4 (human) (UniProt P31152)
MAPK4 (human), sequence (P31152 whole entry, looked up): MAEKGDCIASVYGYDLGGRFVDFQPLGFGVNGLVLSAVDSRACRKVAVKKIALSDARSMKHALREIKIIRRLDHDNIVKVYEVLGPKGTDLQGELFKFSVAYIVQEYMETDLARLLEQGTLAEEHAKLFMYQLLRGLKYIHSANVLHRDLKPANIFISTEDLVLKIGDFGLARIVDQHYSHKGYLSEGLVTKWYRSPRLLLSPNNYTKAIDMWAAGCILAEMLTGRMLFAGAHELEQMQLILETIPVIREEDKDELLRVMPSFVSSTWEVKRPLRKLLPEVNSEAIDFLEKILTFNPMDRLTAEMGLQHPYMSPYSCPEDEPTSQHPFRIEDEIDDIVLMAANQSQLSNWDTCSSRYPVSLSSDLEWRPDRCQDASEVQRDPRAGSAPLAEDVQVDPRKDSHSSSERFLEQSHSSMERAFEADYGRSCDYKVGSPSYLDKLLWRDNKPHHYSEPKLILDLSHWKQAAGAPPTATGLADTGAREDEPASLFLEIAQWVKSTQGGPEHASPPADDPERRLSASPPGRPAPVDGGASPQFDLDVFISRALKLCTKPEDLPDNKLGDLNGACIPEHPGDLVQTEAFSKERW

MYO3A (human) = MYO3A (human) (UniProt Q8NEV4)
NEK5 (human) = NEK5 (human) (UniProt Q6P3R8)
NEK6 (human) = NEK6 (human) (UniProt Q9HC98)
NEK6 (human), sequence (Q9HC98 whole entry, looked up): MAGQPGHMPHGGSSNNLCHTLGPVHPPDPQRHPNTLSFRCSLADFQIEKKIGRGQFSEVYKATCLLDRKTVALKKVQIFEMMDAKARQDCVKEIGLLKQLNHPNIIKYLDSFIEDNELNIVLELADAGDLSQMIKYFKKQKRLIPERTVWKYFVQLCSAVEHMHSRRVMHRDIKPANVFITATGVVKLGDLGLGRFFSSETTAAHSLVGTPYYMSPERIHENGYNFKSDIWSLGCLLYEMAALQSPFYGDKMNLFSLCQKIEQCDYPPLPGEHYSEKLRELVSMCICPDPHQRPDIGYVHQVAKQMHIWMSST

NEK7 (human) = NEK7 (human) (UniProt Q8TDX7)
NUAK2 (human) = NUAK2 (human) (UniProt Q9H093)
PAK3 (human) = PAK3 (human) (UniProt O75914)
PIK3C2B (human) = PIK3C2B (human) (UniProt O00750)
PIP5K1A (human) = PIP5K1A (human) (UniProt Q99755)
PRKCH (human) = PRKCH (human) (UniProt P24723)
PRKG1 (human) = PRKG1 (human) (UniProt Q13976)
PRKX (human) = PRKX (human) (UniProt P51817)
PRKX (human), sequence (P51817 whole entry, looked up): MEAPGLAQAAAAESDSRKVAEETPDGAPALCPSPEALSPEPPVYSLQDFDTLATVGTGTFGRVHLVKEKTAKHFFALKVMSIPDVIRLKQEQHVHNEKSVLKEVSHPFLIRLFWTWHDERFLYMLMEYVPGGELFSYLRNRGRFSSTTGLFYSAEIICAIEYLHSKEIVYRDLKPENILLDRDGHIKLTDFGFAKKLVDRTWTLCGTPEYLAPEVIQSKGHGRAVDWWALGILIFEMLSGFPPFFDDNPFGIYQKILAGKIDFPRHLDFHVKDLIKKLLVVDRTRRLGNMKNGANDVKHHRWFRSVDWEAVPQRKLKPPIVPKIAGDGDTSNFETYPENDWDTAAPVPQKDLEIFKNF

ROS1 (human) = ROS1 (human) (UniProt P08922)
RPS6KA3 KD1 (human) = RPS6KA3 KD1 (human) (UniProt P51812)
RPS6KA3 KD1 (human), sequence (P51812 whole entry, looked up): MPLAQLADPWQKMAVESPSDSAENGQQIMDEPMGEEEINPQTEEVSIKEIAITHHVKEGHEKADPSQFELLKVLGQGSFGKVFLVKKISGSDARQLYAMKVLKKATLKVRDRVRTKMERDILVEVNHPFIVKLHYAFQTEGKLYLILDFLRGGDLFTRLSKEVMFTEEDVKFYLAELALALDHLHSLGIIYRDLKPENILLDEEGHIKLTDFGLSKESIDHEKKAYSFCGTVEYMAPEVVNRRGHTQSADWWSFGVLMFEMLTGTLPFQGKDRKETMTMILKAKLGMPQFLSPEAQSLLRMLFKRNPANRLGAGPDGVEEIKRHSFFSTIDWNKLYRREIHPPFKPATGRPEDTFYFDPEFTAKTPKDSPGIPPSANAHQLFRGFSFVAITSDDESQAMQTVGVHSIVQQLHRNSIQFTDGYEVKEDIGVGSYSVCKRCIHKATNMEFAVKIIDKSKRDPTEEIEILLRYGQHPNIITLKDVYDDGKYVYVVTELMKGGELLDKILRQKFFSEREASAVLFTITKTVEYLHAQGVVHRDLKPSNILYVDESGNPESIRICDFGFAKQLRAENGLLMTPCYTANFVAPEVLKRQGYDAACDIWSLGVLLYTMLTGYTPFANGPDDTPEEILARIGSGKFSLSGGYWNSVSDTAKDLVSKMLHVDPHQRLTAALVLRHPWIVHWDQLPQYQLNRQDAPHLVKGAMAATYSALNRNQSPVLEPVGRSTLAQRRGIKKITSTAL

RPS6KA4 KD1 (human) = RPS6KA4 KD1 (human) (UniProt O75676)
RPS6KA5 KD1 (human) = RPS6KA5 KD1 (human) (UniProt O75582)
SIK2 (human) = SIK2 (human) (UniProt Q9H0K1)

CDK11B (human), sequence (P21127 whole entry, looked up): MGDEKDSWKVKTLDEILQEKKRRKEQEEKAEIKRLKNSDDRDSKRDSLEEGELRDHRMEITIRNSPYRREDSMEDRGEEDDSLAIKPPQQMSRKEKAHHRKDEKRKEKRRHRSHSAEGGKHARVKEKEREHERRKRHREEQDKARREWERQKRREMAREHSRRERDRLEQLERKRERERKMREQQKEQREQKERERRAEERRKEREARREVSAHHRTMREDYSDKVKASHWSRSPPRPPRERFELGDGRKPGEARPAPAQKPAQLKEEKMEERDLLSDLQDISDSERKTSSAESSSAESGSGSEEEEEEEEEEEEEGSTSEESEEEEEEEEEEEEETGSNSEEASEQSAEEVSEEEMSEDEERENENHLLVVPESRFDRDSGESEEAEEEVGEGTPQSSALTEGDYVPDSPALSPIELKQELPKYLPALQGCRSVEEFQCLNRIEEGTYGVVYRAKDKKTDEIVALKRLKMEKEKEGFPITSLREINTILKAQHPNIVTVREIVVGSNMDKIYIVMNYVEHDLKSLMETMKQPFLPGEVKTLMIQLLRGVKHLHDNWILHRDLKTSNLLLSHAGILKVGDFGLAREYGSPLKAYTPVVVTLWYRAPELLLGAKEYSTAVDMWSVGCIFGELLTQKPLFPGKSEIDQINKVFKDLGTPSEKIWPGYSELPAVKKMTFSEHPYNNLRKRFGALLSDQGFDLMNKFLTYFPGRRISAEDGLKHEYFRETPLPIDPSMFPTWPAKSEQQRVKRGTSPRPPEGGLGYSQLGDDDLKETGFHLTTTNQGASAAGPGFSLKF

SMILES: C=CC(=O)Nc1cccc(Nc2nc(N[C@H]3CC[C@H](N(C)C)CC3)nc3c2ncn3C(C)C)c1
- kinase still bound, per cent of control [1]: 71%
- kinase still bound, per cent of control (ACVR2B (human)): 91%
- kinase still bound, per cent of control (ALK (human)): 21%
- kinase still bound, per cent of control (CAMKK2 (human)): 25%
- kinase still bound, per cent of control (CDK11B (human)): 100%
- kinase still bound, per cent of control (CDKL2 (human)): 100%
- kinase still bound, per cent of control (CHEK1 (human)): 87%
- kinase still bound, per cent of control (CaMK1 (human)): 93%
- kinase still bound, per cent of control (DAPK1 (human)): 29%
- kinase still bound, per cent of control (DAPK3 (human)): 23%
- kinase still bound, per cent of control (DDR2 (human)): 100%
- kinase still bound, per cent of control (EPHA2 (human)): 60%
- kinase still bound, per cent of control (EPHB3 (human)): 83%
- kinase still bound, per cent of control (FER (human)): 74%
- kinase still bound, per cent of control (FGR (human)): 14%
- kinase still bound, per cent of control (GAK (human)): 44%
- kinase still bound, per cent of control (GSK3A (human)): 100%
- kinase still bound, per cent of control (IGF1R (human)): 87%
- kinase still bound, per cent of control [2]: 10%
- kinase still bound, per cent of control (LIMK2 (human)): 100%
- kinase still bound, per cent of control (MAP2K1 (human)): 83%
- kinase still bound, per cent of control (MAP3K5 (human)): 100%
- kinase still bound, per cent of control (MAPK1 (human)): 93%
- kinase still bound, per cent of control (MAPK4 (human)): 100%
- kinase still bound, per cent of control (MYO3A (human)): 94%
- kinase still bound, per cent of control (NEK5 (human)): 94%
- kinase still bound, per cent of control (NEK6 (human)): 90%
- kinase still bound, per cent of control (NEK7 (human)): 76%
- kinase still bound, per cent of control (NUAK2 (human)): 45%
- kinase still bound, per cent of control (PAK3 (human)): 100%
- kinase still bound, per cent of control (PIK3C2B (human)): 100%
- kinase still bound, per cent of control (PIP5K1A (human)): 36%
- kinase still bound, per cent of control (PRKCH (human)): 91%
- kinase still bound, per cent of control (PRKG1 (human)): 100%
- kinase still bound, per cent of control (PRKX (human)): 100%
- kinase still bound, per cent of control (ROS1 (human)): 99%
- kinase still bound, per cent of control (RPS6KA3 KD1 (human)): 3.6%
- kinase still bound, per cent of control (RPS6KA4 KD1 (human)): 59%
- kinase still bound, per cent of control (RPS6KA5 KD1 (human)): 93%
- kinase still bound, per cent of control (SIK2 (human)): 69%
